Data set [1] can be described thus: Cytotoxicity, HepG2 cells, Resazurin assay. Type of data set: cell-based. Particulars: human.
Data set [2] relates to HBV. Description: anti HBV activity, HepG2.117 inducibly HBV producing cell line (Tet-off), intracellular HBV DNA by realtime PCR. Type of data set: cell-based. Particulars: Hepatitis B virus, 72 h, HepG2.117 cells, 3 days of treatment.
For data set [3], the system named is HBV. The data set is described as follows: anti-HBV activity, HepG2.2.15 stable transfected cell line, HBV DNA from secreted virions by realtime PCR. The following applies: Hepatitis B virus, 144 h, HepG2.2.15 cells, 6 days of treatment. Type of data set: cell-based.
The nature of data set [4]: ATP based toxicity assay (ATPlite), HepG2 cell line. Particulars: human, HepG2 cells, ATPlite (ATP levels). The method, boiled down: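 HepG2 cells exposed to compound, then ATPlite reagent added at 1 volume. Cellular ATP read by luminescence as a viability measure.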

Molecules are shown by their SMILES. pEC50: −log10 of the molar value.

Broadly, the CC50 is the concentration at which the toxic effect on the cells reaches its halfway point. A high value points to better tolerance by the cells. A word on the pEC50: it is the EC50 on a negative log10 scale, so that one unit is a factor of ten. The low end stands for a high EC50, the high end for a low EC50. As for `C[C@@H](NS(=O)(=O)c1cn(C)c(C(=O)Nc2ccnc(Br)c2)c1F)C(F)(F)F` [Compound 23, N-(2-bromo-4-pyridyl)-3-fluoro-1-methyl-4-[[(1R)-2,2,2-trifluoro-1-methyl-ethyl]sulfamoyl]pyrrole-2-carboxamide], the cytotoxic concentration (CC50) at 4 days in data set [1] and in data set [4] was over 25000 nM throughout. In addition, the negative-log EC50 (pEC50) in the data set with HBV [2] and with HBV [3] was 8.00 each time.
The term melting point denotes the temperature of the solid-liquid transition. As for `C[C@@H](NS(=O)(=O)c1cn(C)c(C(=O)Nc2ccncc2)c1Cl)C(F)(F)F` [Compound 16, 3-chloro-1-methyl-N-(4-pyridyl)-4-[[(1R)-2,2,2-trifluoro-1-methyl-ethyl]sulfamoyl]pyrrole-2-carboxamide], the melting point was 259.3 °C. Also, the CC50 at 4 days in data set [1] is over 25000 nM. The compound also showed a pEC50 in the data set with HBV [2] of 6.55. For the same compound, in the data set with HBV [3], the pEC50 was 6.40.
The matching figures for `Cc1cc(NC(=O)c2c(Cl)c(S(=O)(=O)N[C@H](C)C(F)(F)F)cn2C)ccn1` [Compound 8, 3-Chloro-1-methyl-N-(2-methylpyridin-4-yl)-4-{[(1R)-2,2,2-trifluoro-1-methylethyl]sulfamoyl}-1H-pyrrole-2-carboxamide]: 203.5 °C, over 25000 nM, 6.77 and 7.05.
`C[C@@H](NS(=O)(=O)c1cn(C)c(C(=O)Nc2cc(F)nc(F)c2)c1F)C(C)(F)F` [Compound 159, 4-[[(1R)-2,2-difluoro-1-methyl-propyl]sulfamoyl]-N-(2,6-difluoro-4-pyridyl)-3-fluoro-1-methyl-pyrrole-2-carboxamide]: the CC50 at 4 days in data set [1] and in data set [4] was over 25000 nM in each case. Also, the figures for the negative-log EC50 (pEC50) in the data set on HBV [2] and in the data set with HBV [3] were 8.05 and over 7.00, respectively.
The compound `C[C@@H](NS(=O)(=O)c1cn(C)c(C(=O)Nc2ccnc(F)c2)c1Cl)C(F)(F)F` [Compound 11, 3-Chloro-N-(2-fluoropyridin-4-yl)-1-methyl-4-{[(1R)-2,2,2-trifluoro-1-methylethyl]sulfamoyl}-1H-pyrrole-2-carboxamide] gave a melting point of 218.1 °C. Moreover, in data set [1], the CC50 at 4 days is over 25000 nM. The negative logarithm of the EC50 (pEC50) in the data set on HBV [2] was 7.22. This compound also gave a pEC50 with HBV [3] of 7.70.
Take `C[C@@H](NS(=O)(=O)c1cn(C)c(C(=O)Nc2ccnc(C(F)F)c2)c1F)C(C)(F)F` [Compound 88, 4-[[(1R)-2,2-difluoro-1-methyl-propyl]sulfamoyl]-N-[2-(difluoromethyl)-4-pyridyl]-3-fluoro-1-methyl-pyrrole-2-carboxamide]: the CC50 at 4 days in data set [1] and in data set [4] was over 25000 nM throughout. Also, the negative logarithm of the EC50 (pEC50) with HBV [2] was 8.00; with HBV [3] it was 8.15.
For the compound `Cc1c(S(=O)(=O)N[C@H](C)C(F)(F)F)c(Cl)c(C(=O)Nc2ccnc(C#N)c2)n1C` [Compound 32, 3-chloro-N-(2-cyano-4-pyridyl)-1,5-dimethyl-4-[[(1R)-2,2,2-trifluoro-1-methyl-ethyl]sulfamoyl]pyrrole-2-carboxamide], the cytotoxic concentration (CC50) at 4 days in data set [1] and in data set [4] was over 25000 nM throughout. Besides, the negative-log EC50 (pEC50) in the data set on HBV [2] and with HBV [3] was 7.70 in each case.
Turning to `C[C@@H](NS(=O)(=O)c1cn(C)c(C(=O)Nc2ccnc(Br)c2)c1Cl)C(C)(F)F` [Compound 105, N-(2-bromo-4-pyridyl)-3-chloro-4-[[(1R)-2,2-difluoro-1-methyl-propyl]sulfamoyl]-1-methyl-pyrrole-2-carboxamide], the CC50 at 4 days in data set [1] was over 25000 nM; in data set [4], 23300 nM. Besides, the results for the pEC50 in the data set on HBV [2] and in the data set on HBV [3] were 7.70 and over 7.00, respectively.
The corresponding values for `C[C@@H](NS(=O)(=O)c1cn(C)c(C(=O)Nc2ccnc(C(F)F)c2)c1Cl)C(F)(F)F` [Compound 74, 3-chloro-N-[2-(difluoromethyl)-4-pyridyl]-1-methyl-4-[[(1R)-2,2,2-trifluoro-1-methyl-ethyl]sulfamoyl]pyrrole-2-carboxamide] are over 25000 nM, over 25000 nM, 7.70 and 7.70.
The matching figures for `Cn1cc(S(=O)(=O)NC2(C)CC(F)(F)C2)c(F)c1C(=O)Nc1ccnc(Cl)c1F` [Compound 81, N-(2-chloro-3-fluoro-4-pyridyl)-4-[(3,3-difluoro-1-methyl-cyclobutyl)sulfamoyl]-3-fluoro-1-methyl-pyrrole-2-carboxamide]: 24300 nM, over 25000 nM, 8.10 and 8.00.
The corresponding values for `Cn1cc(S(=O)(=O)NC2(C)CC(F)(F)C2)c(Cl)c1C(=O)Nc1ccnc(C(F)F)c1` [Compound 99, 3-chloro-4-[(3,3-difluoro-1-methyl-cyclobutyl)sulfamoyl]-N-[2-(difluoromethyl)-4-pyridyl]-1-methyl-pyrrole-2-carboxamide] are over 25000 nM, over 25000 nM, 7.70 and 8.00.
Turning to `Cn1cc(S(=O)(=O)NC2(C(F)(F)F)CCC2)c(Cl)c1C(=O)Nc1ccnc(C#N)c1` [Compound 40, 3-chloro-N-(2-cyano-4-pyridyl)-1-methyl-4-[[1-(trifluoromethyl)cyclobutyl]sulfamoyl]pyrrole-2-carboxamide], the CC50 at 4 days in data set [1] and in data set [4] was over 25000 nM throughout. Besides, the pEC50 with HBV [2] and with HBV [3] was 7.70 throughout.
On to `C[C@@H](NS(=O)(=O)c1cn(C)c(C(=O)Nc2ccnc(C#N)c2)c1F)C(C)(F)F` [Compound 63, N-(2-cyano-4-pyridyl)-4-[[(1R)-2,2-difluoro-1-methyl-propyl]sulfamoyl]-3-fluoro-1-methyl-pyrrole-2-carboxamide], for which the CC50 at 4 days in data set [1] and in data set [4] was over 25000 nM in each case. The pEC50 with HBV [2] was 7.52; in the data set on HBV [3] it was 8.00.
For `C[C@@H](NS(=O)(=O)c1cn(C)c(C(=O)Nc2ccnc(Cl)c2)c1F)C(C)(F)F` [Compound 61, N-(2-chloro-4-pyridyl)-4-[[(1R)-2,2-difluoro-1-methyl-propyl]sulfamoyl]-3-fluoro-1-methyl-pyrrole-2-carboxamide], the half-maximal cytotoxic concentration (CC50) at 4 days in data set [1] and in data set [4] was over 25000 nM in each case. For the same compound, the negative logarithm of the EC50 (pEC50) was 7.70 in the data set on HBV [2] and 8.00 with HBV [3].
For `C[C@@H](NS(=O)(=O)c1cn(C)c(C(=O)Nc2ccnc(C(F)F)c2)c1F)C(F)(F)F` [Compound 80, N-[2-(difluoromethyl)-4-pyridyl]-3-fluoro-1-methyl-4-[[(1R)-2,2,2-trifluoro-1-methyl-ethyl]sulfamoyl]pyrrole-2-carboxamide], the 50% cytotoxic concentration (CC50) at 4 days in data set [1] and in data set [4] was over 25000 nM each time. Moreover, the negative logarithm of the EC50 (pEC50) with HBV [2] was 7.70; in the data set with HBV [3] it was 8.00.
As for `C[C@@H](NS(=O)(=O)c1cn(C)c(C(=O)Nc2ccnc(C(F)F)c2)c1Cl)C(C)(F)F` [Compound 97, 3-chloro-4-[[(1R)-2,2-difluoro-1-methyl-propyl]sulfamoyl]-N-[2-(difluoromethyl)-4-pyridyl]-1-methyl-pyrrole-2-carboxamide], the cytotoxic concentration (CC50) at 4 days in data set [1] and in data set [4] was over 25000 nM each time. Also, the pEC50 in the data set with HBV [2] and with HBV [3] was 7.70 throughout.
For `C[C@@H](NS(=O)(=O)c1cn(C)c(C(=O)Nc2cc(F)nc(F)c2)c1Cl)C(C)(F)F` [Compound 104, 3-chloro-4-[[(1R)-2,2-difluoro-1-methyl-propyl]sulfamoyl]-N-(2,6-difluoro-4-pyridyl)-1-methyl-pyrrole-2-carboxamide], the CC50 at 4 days in data set [1] and in data set [4] was over 25000 nM in each case. The pEC50 was 8.00 in the data set with HBV [2] and over 7.00 in the data set with HBV [3].
As for `C[C@@H](NS(=O)(=O)c1cn(C)c(C(=O)Nc2ccnc(F)c2)c1F)C(F)(F)F` [Compound 24, 3-fluoro-N-(2-fluoro-4-pyridyl)-1-methyl-4-[[(1R)-2,2,2-trifluoro-1-methyl-ethyl]sulfamoyl]pyrrole-2-carboxamide], the half-maximal cytotoxic concentration (CC50) at 4 days in data set [1] and in data set [4] was over 25000 nM each time. The pEC50 in the data set with HBV [2] and with HBV [3] was 7.40 in each case.
With `C[C@@H](NS(=O)(=O)c1cn(C)c(C(=O)Nc2ccnc(F)c2)c1F)C(C)(F)F` [Compound 98, 4-[[(1R)-2,2-difluoro-1-methyl-propyl]sulfamoyl]-3-fluoro-N-(2-fluoro-4-pyridyl)-1-methyl-pyrrole-2-carboxamide], the 50% cytotoxic concentration (CC50) at 4 days in data set [1] and in data set [4] was over 25000 nM in each case. Also, the results for the negative-log EC50 (pEC50) with HBV [2] and in the data set on HBV [3] were 7.52 and 7.40, respectively.
Take `C[C@@H](NS(=O)(=O)c1cn(C)c(C(=O)Nc2ccnc(C#N)c2)c1F)C(F)(F)F` [Compound 18, N-(2-Cyanopyridin-4-yl)-3-fluoro-1-methyl-4-{[(1R)-2,2,2-trifluoro-1-methylethyl]sulfamoyl}-1H-pyrrole-2-carboxamide]: the CC50 at 4 days in data set [1] and in data set [4] was over 25000 nM in each case. The negative-log EC50 (pEC50) with HBV [2] and in the data set on HBV [3] was 7.52 each time.
As to `C[C@@H](NS(=O)(=O)c1cn(C)c(C(=O)Nc2ccnc(F)c2)c1Cl)C(C)(F)F` [Compound 95, 3-chloro-4-[[(1R)-2,2-difluoro-1-methyl-propyl]sulfamoyl]-N-(2-fluoro-4-pyridyl)-1-methyl-pyrrole-2-carboxamide], the CC50 at 4 days in data set [1] was 21600 nM; in data set [4], over 25000 nM. Also, the negative logarithm of the EC50 (pEC50) with HBV [2] was 7.40; with HBV [3] it was 7.22.
The matching figures for `C[C@@H](NS(=O)(=O)c1cn(C)c(C(=O)Nc2ccnc(Cl)c2)c1F)C(F)(F)F` [Compound 20, N-(2-chloro-4-pyridyl)-3-fluoro-1-methyl-[[(1R)-2,2,2-trifluoro-1-methyl-ethyl]sulfamoyl]pyrrole-2-carboxamide]: over 25000 nM, over 25000 nM, 7.70 and 7.52.

The values above are taken from patent publication US11078193B2 (priority 2014, dated 2021).
